For orientation: DC50 means the concentration giving 50% degradation.

Where only a bound is given, the exact number is not on record here.

DC50 data for 13 compounds are collected here from patent US20240360146A1, “BRUTON'S TYROSINE KINASE AND MUTANT DEGRADER, COMPOSITION AND APPLICATION THEREOF” (HANGZHOU HEALZEN THERAPEUTICS CO., LTD., priority 2021, published 2024).

T1 sequence (Q06187 whole entry): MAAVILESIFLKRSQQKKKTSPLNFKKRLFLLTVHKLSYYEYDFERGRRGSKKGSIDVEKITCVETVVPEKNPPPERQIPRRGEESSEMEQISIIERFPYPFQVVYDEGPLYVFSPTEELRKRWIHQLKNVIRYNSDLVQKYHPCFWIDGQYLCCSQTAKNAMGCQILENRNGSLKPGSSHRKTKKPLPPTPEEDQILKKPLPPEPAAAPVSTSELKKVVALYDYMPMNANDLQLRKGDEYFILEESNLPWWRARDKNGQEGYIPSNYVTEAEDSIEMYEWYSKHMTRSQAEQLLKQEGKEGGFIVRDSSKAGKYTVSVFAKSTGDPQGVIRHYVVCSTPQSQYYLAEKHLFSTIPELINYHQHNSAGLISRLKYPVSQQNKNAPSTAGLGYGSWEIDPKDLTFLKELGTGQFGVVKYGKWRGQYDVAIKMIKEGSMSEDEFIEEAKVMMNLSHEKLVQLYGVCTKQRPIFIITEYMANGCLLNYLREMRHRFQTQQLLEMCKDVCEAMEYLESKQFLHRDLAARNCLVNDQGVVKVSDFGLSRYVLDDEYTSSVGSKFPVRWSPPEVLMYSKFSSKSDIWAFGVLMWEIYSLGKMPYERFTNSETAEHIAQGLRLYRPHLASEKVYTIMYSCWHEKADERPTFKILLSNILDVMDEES

The experiment has as its target T1, BTK (Homo sapiens, UniProt Q06187).
T1 construct: endogenous in cells; host or cells: Mino cells
Description: BTK degradation activity test in Mino cells. Type of experiment: cell-based. The conditions noted are these: 16 h incubation, Western blot or Elisa. The essentials:
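DC50 derived by curve fitting of BTK degradation rates versus untreated control across compound concentrations. Mino cells were exposed for 16 h; BTK levels in lysates, normalised via BCA protein, measured by Western blot or ELISA.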
`CN1CCN([C@@H]2CCCN(c3nnc(C(N)=O)c(Nc4ccc(C5CCN(C[C@H]6CCN(c7cc8c(cc7F)C(=O)N(C7CCC(=O)NC7=O)C8=O)C6)CC5)cc4)n3)C2)C1=O` (stereo partly drawn) [Compound 156, 5-((4-(1-(((3R)-1-(2-(2,6-dioxopiperidin-3-yl)-6-fluoro-1,3-dioxoisoindolin-5-yl)pyrrolidin-3-yl)methyl)piperidin-4-yl)phenyl)amino)-3-((R)-3-(3-methyl-2-oxoimidazolin-1-yl)piperidin-1-yl)-1,2,4-triazin-6-carboxamide] returned a DC50 of less than 1 nM.

Take `CN1CCN([C@@H]2CCCN(c3nnc(C(N)=O)c(Nc4ccc(C5CCN(C[C@@H]6CCN(c7ccc8c(c7)C(=O)N(C7CCC(=O)NC7=O)C8=O)C6)CC5)c(F)c4)n3)C2)C1=O` (stereo partly drawn) [Compound 157, 5-((4-(1-(((3S)-1-(2-(2,6-dioxopiperidin-3-yl)-1,3-dioxoisoindolin-5-yl)pyrrolidin-3-yl)methyl)piperidin-4-yl)-3-fluorophenyl)amino)-3-((R)-3-(3-methyl-2-oxoimidazolin-1-yl)piperidin-1-yl)-1,2,4-triazin-6-carboxamide]: the DC50 was less than 1 nM.

Compound `CN1CCN([C@@H]2CCCN(c3nnc(C(N)=O)c(Nc4ccc(C5CCN(C[C@H]6CCN(c7ccc8c(c7)C(=O)N(C7CCC(=O)NC7=O)C8=O)C6)CC5)c(F)c4)n3)C2)C1=O` (stereo partly drawn) [Compound 158, 5-((4-(1-(((3R)-1-(2-(2,6-dioxopiperidin-3-yl)-1,3-dioxoisoindolin-5-yl)pyrrolidin-3-yl)methyl)piperidin-4-yl)-3-fluorophenyl)amino)-3-((R)-3-(3-methyl-2-oxoimidazolin-1-yl)piperidin-1-yl)-1,2,4-triazin-6-carboxamide] yielded a DC50 of less than 1 nM.

Compound `CN1CCN([C@@H]2CCCN(c3nnc(C(N)=O)c(Nc4ccc(N5CCN(C[C@@H]6CCN(c7ccc8c(c7)C(=O)N(C7CCC(=O)NC7=O)C8=O)C6)CC5)c(Cl)c4)n3)C2)C1=O` (stereo partly drawn) [Compound 159, 5-((3-chloro-4-(4-(((3S)-1-(2-(2,6-dioxopiperidin-3-yl)-1,3-dioxoisoindolin-5-yl)pyrrolidin-3-yl)methyl)piperazin-1-yl)phenyl)amino)-3-((R)-3-(3-methyl-2-oxoimidazolidin-1-yl)piperidin-1-yl)-1,2,4-triazin-6-carboxamide] showed a DC50 of less than 1 nM.

In turn, `CN1CCN([C@@H]2CCCN(c3nnc(C(N)=O)c(Nc4ccc(N5CCN(C[C@H]6CCN(c7ccc8c(c7)C(=O)N(C7CCC(=O)NC7=O)C8=O)C6)CC5)c(Cl)c4)n3)C2)C1=O` (stereo partly drawn) [Compound 160, 5-((3-chloro-4-(4-(((3R)-1-(2-(2,6-dioxopiperidin-3-yl)-1,3-dioxoisoindolin-5-yl)pyrrolidin-3-yl)methyl)piperazin-1-yl)phenyl)amino)-3-((R)-3-(3-methyl-2-oxoimidazolidin-1-yl)piperidin-1-yl)-1,2,4-triazin-6-carboxamide] returned a DC50 of less than 1 nM.

As for `CN1CCN([C@@H]2CCCN(c3nnc(C(N)=O)c(Nc4ccc(N5CCN(CC6CCN(c7ccc8c(c7)C(=O)N(C7CCC(=O)NC7=O)C8=O)CC6)CC5)c(Cl)c4)n3)C2)C1=O` (stereo partly drawn) [Compound 164, 5-((3-chloro-4-(4-((1-(2-(2,6-dioxopiperidin-3-yl)-1,3-dioxoisoindolin-5-yl)piperidin-4-yl)methyl)piperazin-1-yl)phenyl)amino)-3-((R)-3-(3-methyl-2-oxoimidazolidin-1-yl)piperidin-1-yl)-1,2,4-triazin-6-carboxamide], the 50% degradation concentration (DC50) was less than 1 nM.

The compound `CN1CCN([C@@H]2CCCN(c3nnc(C(N)=O)c(Nc4ccc(N5CCN(CC6CCN(c7ccc8c(c7)C(=O)N(C7CCC(=O)NC7=O)C8=O)CC6)CC5)c(F)c4F)n3)C2)C1=O` (stereo partly drawn) [Compound 165, 5-((4-(4-((1-(2-(2,6-dioxopiperidin-3-yl)-1,3-dioxoisoindolin-5-yl)piperidin-4-yl)methyl)piperazin-1-yl)-2,3-difluorophenyl)amino)-3-((R)-3-(3-methyl-2-oxoimidazolidin-1-yl)piperidin-1-yl)-1,2,4-triazin-6-carboxamide] displayed a DC50 of less than 1 nM.

`CN1CCN([C@@H]2CCCN(c3nnc(C(N)=O)c(Nc4ccc(N5CCN(CC6CCN(c7cc8c(cc7F)C(=O)N(C7CCC(=O)NC7=O)C8=O)C6)CC5)c(F)c4)n3)C2)C1=O` (stereo partly drawn) [Compound 169, 5-((4-(4-((1-(2-(2,6-dioxopiperidin-3-yl)-6-fluoro-1,3-dioxoisoindolin-5-yl)pyrrolidin-3-yl)methyl)piperazin-1-yl)-3-fluorophenyl)amino)-3-((R)-3-(3-methyl-2-oxoimidazolidin-1-yl)piperidin-1-yl)-1,2,4-triazin-6-carboxamide] showed a DC50 of less than 1 nM.

`CN1CCN([C@@H]2CCCN(c3nnc(C(N)=O)c(Nc4ccc(N5CCN(CC6CCN(c7ccc(C(=O)NC8CCC(=O)NC8=O)cn7)CC6)CC5)c(F)c4)n3)C2)C1=O` (stereo partly drawn) [Compound 175, 5-((4-(4-((1-(5-((2,6-dioxopiperidin-3-yl)carbamoyl)pyridin-2-yl)piperidin-4-yl)methyl)piperazin-1-yl)-3-fluorophenyl)amino)-3-((R)-3-(3-methyl-2-oxoimidazolidin-1-yl)piperidin-1-yl)-1,2,4-triazin-6-carboxamide] registered a DC50 of less than 1 nM.

`CN1CCN([C@@H]2CCCN(c3nnc(C(N)=O)c(Nc4ccc(N5CCN(CC6CCN(c7ccc(C(=O)NC8CCC(=O)NC8=O)c8c7OCO8)C6)CC5)c(F)c4)n3)C2)C1=O` (stereo partly drawn) [Compound 176, 5-((4-(4-((1-(7-((2,6-dioxopiperidin-3-yl)carbamoyl)benzo[d][1,3]dioxacyclopent-4-yl)pyrrolidin-3-yl)methyl)piperazin-1-yl)-3-fluorophenyl)amino)-3-((R)-3-(3-methyl-2-oxoimidazolidin-1-yl)piperidin-1-yl)-1,2,4-triazin-6-carboxamide] showed a DC50 of less than 1 nM.

The compound `CN1CCN([C@@H]2CCCN(c3nnc(C(N)=O)c(Nc4ccc(N5CCN(CC6CCN(c7ccc(C(=O)NC8CCC(=O)NC8=O)c8[nH]cnc78)C6)CC5)c(F)c4)n3)C2)C1=O` (stereo partly drawn) [Compound 178, 4-(3-((4-(4-((6-carbamoyl-3-((R)-3-(3-methyl-2-oxoimidazolidin-1-yl)piperidin-1-yl)-1,2,4-triazin-5-yl)amino)-2-fluorophenyl)piperazin-1-yl)methyl)pyrrolidin-1-yl)-N-(2,6-dioxopiperidin-3-yl)-1Hbenzimidazol-7-carboxamide] came in with a DC50 of less than 1 nM.

In turn, `CN1CCN([C@@H]2CCCN(c3nnc(C(N)=O)c(Nc4ccc(N5CCN(CC6CCN(c7ccc(N8CCC(=O)NC8=O)c8c7OCO8)CC6)CC5)c(F)c4)n3)C2)C1=O` [Compound 190, (R)-5-((4-(4-((1-(7-(2,4-dioxotetrahydropyrimidin-1(2H)-yl)benzo[d][1,3]dioxacyclopent-4-yl)piperidin-4-yl)methyl)piperazin-1-yl)-3-fluorophenyl)amino)-3-(3-(3-methyl-2-oxoimidazolidin-1-yl)piperidin-1-yl)-1,2,4-triazin-6-carboxamide] returned a DC50 of less than 1 nM.

For `CN1CCN([C@@H]2CCCN(c3nnc(C(N)=O)c(Nc4ccc(N5CCN(CC6CCN(c7ccc(N8CCC(=O)NC8=O)c8c7OCCO8)CC6)CC5)c(F)c4)n3)C2)C1=O` [Compound 193, (R)-5-((4-(4-((1-(8-(2,4-dioxotetrahydropyrimidin-1(2H)-yl)-2,3-dihydrobenzo[b][1,4]dioxan-5-yl)piperidin-4-yl)methyl)piperazin-1-yl)-3-fluorophenyl)amino)-3-(3-(3-methyl-2-oxoimidazolidin-1-yl)piperidin-1-yl)-1,2,4-triazin-6-carboxamide], the DC50 was less than 1 nM.
